Source: patent US20260184663A1, “INDENE COMPOUNDS, PHARMACEUTICAL COMPOSITIONS THEREOF, AND THEIR THERAPEUTIC APPLICATIONS” (NucMito Pharmaceuticals co. Ltd., priority 2022, published 2026)

How the values were obtained:
Type in all cases: cell-based
HeLa (cervical cancer) = experiment: Antiproliferative activity (CCK-8 cell viability), HeLa; conditions: Homo sapiens, 72 h, read-out: Antiproliferative activity in cancerous cells, HELA (inhibition of cell growth); for inhibition at 3.3 µM: Compound concentration: 3.3 μM; for inhibition at 10 µM: Compound concentration: 10 μM
How it was run: (§1)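 Cells grown in DMEM (HepG2, SW480), MEM (HeLa) or F-12K (A549), each with 10% FBS, then exposed to compound at 3.3, 10 or 30 μM for 72 h at 37 °C. CCK-8 absorbance at 450 nm; viability expressed as percent of DMSO-treated cells, graded as growth inhibition bands.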

[1] = test system: B16F10 (malignant melanoma); experiment: Antiproliferative activity (CCK-8 cell viability), B16F10; conditions: Mus musculus, 72 h, read-out: Antiproliferative activity in cancerous cells, B16F10 (inhibition of cell growth); for inhibition at 3.3 µM: B16-F10, Compound concentration: 3.3 μM; for inhibition at 10 µM: B16-F10, Compound concentration: 10 μM
How it was run: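 B16F10 melanoma cells grown in DMEM with 10% FBS were plated in 96-well plates at 2,000-5,000 cells/well. After attachment they were exposed to compound in medium for 72 h at 37° C. CCK-8 solution (10 μL) was then added, and after 4 h at 37° C absorbance was read at 450 nm.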

SW480 (colon cancer) = experiment: Antiproliferative activity (CCK-8 cell viability), SW480; conditions: Homo sapiens, 72 h; for inhibition at 3.3 µM: Compound concentration: 3.3 μM; for inhibition at 3.3 µM / inhibition at 10 µM: read-out: Antiproliferative activity in cancerous cells, SW480 (inhibition of cell growth); for inhibition at 10 µM: Compound concentration: 10 μM
How it was run: as §1

[2] = test system: A431 (epidermoid carcinoma); experiment: Antiproliferative activity (CCK-8 cell viability), A431; conditions: Homo sapiens, 72 h, read-out: Antiproliferative activity in cancerous cells, A431 (inhibition of cell growth); for inhibition at 3.3 µM: A-431, Compound concentration: 3.3 μM; for inhibition at 10 µM: A-431, Compound concentration: 10 μM
How it was run: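 A431 epidermoid carcinoma cells grown in DMEM with 10% FBS were plated at 2,000-5,000 cells/well in 96-well plates. After attachment they were exposed to compound at 3.3 μM, 10 μM, or 30 μM for 72 h at 37° C. Viability was then assessed by CCK-8 against DMSO vehicle-treated wells.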

[3] = test system: MDA-MB-231 (breast cancer); experiment: Antiproliferative activity (CCK-8 cell viability), MDA-MB-231; conditions: Homo sapiens, 72 h; for inhibition at 3.3 µM: Compound concentration: 3.3 μM; for inhibition at 3.3 µM / inhibition at 10 µM: read-out: Antiproliferative activity in cancerous cells, MDA-MB-231 (inhibition of cell growth); for inhibition at 10 µM: Compound concentration: 10 μM; for inhibition at 30 µM: Compound concentration: 30 μM, read-out: Antiproliferative activity in cancerous cells, MDA-MB-231
How it was run: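 MDA-MB-231 breast cancer cells, grown in DMEM with 10% FBS, were plated in 96-well plates at 2,000-5,000 cells/well. Once attached, they were exposed to compound and incubated at 37° C. for 72 h. Viability was then measured with CCK-8 (10 μL per well, 4 h at 37° C.) by absorbance at 450 nm, relative to DMSO vehicle wells.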

HepG2 (liver cancer) = experiment: Antiproliferative activity (CCK-8 cell viability), HepG2; conditions: Homo sapiens, 72 h, read-out: Antiproliferative activity in cancerous cells, HepG2 (inhibition of cell growth); for inhibition at 3.3 µM: Compound concentration: 3.3 μM; for inhibition at 10 µM: Compound concentration: 10 μM
How it was run: as §1

[4] = test system: A549 (lung adenocarcinoma); experiment: Antiproliferative activity (CCK-8 cell viability), A549; conditions: Homo sapiens, 72 h, read-out: Antiproliferative activity in cancerous cells, A549 (inhibition of cell growth); for inhibition at 3.3 µM: Compound concentration: 3.3 μM; for inhibition at 10 µM: Compound concentration: 10 μM
How it was run: as §1

| SMILES | inhibition at 3.3 µM (HeLa (cervical cancer)) [%] | inhibition at 10 µM (HeLa (cervical cancer)) [%] | inhibition at 3.3 µM [1] [%] | inhibition at 10 µM [1] [%] | inhibition at 3.3 µM (SW480 (colon cancer)) [%] | inhibition at 10 µM (SW480 (colon cancer)) [%] | inhibition at 3.3 µM [2] [%] | inhibition at 10 µM [2] [%] | inhibition at 3.3 µM [3] [%] | inhibition at 10 µM [3] [%] | inhibition at 3.3 µM (HepG2 (liver cancer)) [%] | inhibition at 10 µM (HepG2 (liver cancer)) [%] | inhibition at 3.3 µM [4] [%] | inhibition at 10 µM [4] [%] | inhibition at 30 µM (SW480 (colon cancer); Compound concentration: 30 μM, read-out: Antiproliferative activity in cancerous cells, SW480) [%] | inhibition at 30 µM [3] [%] |
| --- | --- | --- | --- | --- | --- | --- | --- | --- | --- | --- | --- | --- | --- | --- | --- | --- |
| CC1=C(CC(=O)O)c2cc(C)ccc2/C1=C\c1ccc(COCc2ccc(Cl)cc2)cc1 [B149, (Z)-2-(1-(4-(((4-Chlorobenzyl)oxy)methyl)benzylidene)-2,5-dimethyl-1H-inden-3-yl)acetic acid] | < 30 | ≥ 50 | < 30 | < 30 | < 30 | 30 to 50 | ≥ 50 | ≥ 50 | < 30 | 30 to 50 | < 30 | ≥ 50 | 30 to 50 | ≥ 50 | – | – |
| CC1=C(CC(=O)O)c2cc(F)ccc2/C1=C\c1ccc(COCc2ccc(C(C)C)cc2)cc1 [B150, (Z)-2-(5-Fluoro-1-(4-(((4-isopropylbenzyl)oxy)methyl)benzylidene)-2-methyl-1H-inden-3-yl)acetic acid] | 30 to 50 | ≥ 50 | < 30 | ≥ 50 | 30 to 50 | ≥ 50 | ≥ 50 | ≥ 50 | 30 to 50 | ≥ 50 | < 30 | ≥ 50 | 30 to 50 | ≥ 50 | – | – |
| CCc1ccc(COCc2ccc(/C=C3/C(C)=C(CC(=O)O)c4cc(F)ccc43)cc2)cc1 [B151, (Z)-2-(1-(4-(((4-Ethylbenzyl)oxy)methyl)benzylidene)-5-fluoro-2-methyl-1H-inden-3-yl)acetic acid] | < 30 | ≥ 50 | < 30 | < 30 | 30 to 50 | ≥ 50 | ≥ 50 | ≥ 50 | 30 to 50 | ≥ 50 | < 30 | ≥ 50 | 30 to 50 | ≥ 50 | – | – |
| CC1=C(CC(=O)O)c2cc(F)ccc2/C1=C\c1ccc(COCc2ccc(C(F)F)cc2)cc1 [B152, (Z)-2-(1-(4-(((4-(Difluoromethyl)benzyl)oxy)methyl)benzylidene)-5-fluoro-2-methyl-1H-inden-3-yl)acetic acid] | < 30 | ≥ 50 | < 30 | ≥ 50 | 30 to 50 | ≥ 50 | 30 to 50 | ≥ 50 | < 30 | ≥ 50 | < 30 | ≥ 50 | < 30 | ≥ 50 | – | – |
| CCc1ccc2c(c1)C(CC(=O)O)=C(C)/C2=C/c1ccc(CCc2ccccc2)cc1 [B157, (Z)-2-(5-Ethyl-2-methyl-1-(4-phenethylbenzylidene)-1H-inden-3-yl)acetic acid] | < 30 | ≥ 50 | < 30 | ≥ 50 | ≥ 50 | ≥ 50 | 30 to 50 | ≥ 50 | < 30 | < 30 | < 30 | ≥ 50 | 30 to 50 | ≥ 50 | – | – |
| CC1=C(CC(=O)O)c2cc(Cl)ccc2/C1=C\c1ccc(CCc2ccccc2)cc1 [B158, (Z)-2-(5-Chloro-2-methyl-1-(4-phenethylbenzylidene)-1H-inden-3-yl)acetic acid] | < 30 | ≥ 50 | 30 to 50 | ≥ 50 | < 30 | < 30 | < 30 | < 30 | < 30 | < 30 | < 30 | ≥ 50 | < 30 | < 30 | 30 to 50 | 30 to 50 |
| CC1=C(CC(=O)O)c2cc(I)ccc2/C1=C\c1ccc(Oc2ccc(F)cc2)cc1 [C28, (Z)-2-(1-(4-(4-Fluorophenoxy)benzylidene)-5-iodo-2-methyl-1H-inden-3-yl)-acetic acid] | 30 to 50 | ≥ 50 | 30 to 50 | ≥ 50 | < 30 | ≥ 50 | < 30 | ≥ 50 | < 30 | ≥ 50 | 30 to 50 | ≥ 50 | 30 to 50 | ≥ 50 | – | – |
| CC1=C(CC(=O)O)c2cc(F)ccc2/C1=C\c1ccc(S(=O)(=O)c2ccc(F)cc2)cc1 [C40, (Z)-2-(5-Fluoro-1-(4-((4-fluorophenyl)sulfonyl)benzylidene)-2-methyl-1H-inden-3-yl)acetic acid] | < 30 | ≥ 50 | < 30 | ≥ 50 | < 30 | ≥ 50 | 30 to 50 | 30 to 50 | 30 to 50 | 30 to 50 | < 30 | ≥ 50 | < 30 | 30 to 50 | – | 30 to 50 |
| COc1ccc(S(=O)(=O)c2ccc(/C=C3/C(C)=C(CC(=O)O)c4cc(F)ccc43)cc2)cc1 [C41, (Z)-2-(5-Fluoro-1-(4-((4-methoxyphenyl)sulfonyl)benzylidene)-2-methyl-1H-inden-3-yl)acetic acid] | < 30 | ≥ 50 | 30 to 50 | ≥ 50 | < 30 | ≥ 50 | 30 to 50 | ≥ 50 | ≥ 50 | ≥ 50 | < 30 | ≥ 50 | < 30 | ≥ 50 | – | – |
| CC1=C(CC(=O)O)c2cc(F)ccc2/C1=C\c1cccc(Sc2ccc(F)cc2)c1 [C42, (Z)-2-(5-Fluoro-1-(3-((4-fluorophenyl)thio)benzylidene)-2-methyl-1H-inden-3-yl)acetic acid] | < 30 | ≥ 50 | 30 to 50 | ≥ 50 | < 30 | ≥ 50 | < 30 | ≥ 50 | ≥ 50 | ≥ 50 | < 30 | ≥ 50 | < 30 | ≥ 50 | – | – |
